Results as given in the CheMixHub ionic liquid set.

Experiment: xn = mol fraction of the nth substance listed
Settings: 308.15 K, 101 kPa

CCCCCCCCCCCCCCCC[n+]1ccccc1.[Cl-] + C[C@@H](O)[C@H](N)C(=O)O + O
Settings | electrical conductivity [S/m]
x2 = 0, x1 = 5.4e-07 | 0.000222
x2 = 0, x1 = 9e-07 | 0.00029
x2 = 0, x1 = 1.62e-06 | 0.0004
x2 = 0, x1 = 2.34e-06 | 0.000465
x2 = 0, x1 = 2.88e-06 | 0.000581
x2 = 0, x1 = 3.78e-06 | 0.000705
x2 = 0, x1 = 4.5e-06 | 0.000794
x2 = 0, x1 = 5.59e-06 | 0.000937
x2 = 0, x1 = 6.85e-06 | 0.00106
x2 = 0, x1 = 7.93e-06 | 0.001222
x2 = 0, x1 = 9.01e-06 | 0.001438
x2 = 0, x1 = 1.009e-05 | 0.00159
x2 = 0, x1 = 1.117e-05 | 0.001701
x2 = 0, x1 = 1.442e-05 | 0.00209
x2 = 0, x1 = 1.55e-05 | 0.00219
x2 = 0, x1 = 1.766e-05 | 0.00237
x2 = 0, x1 = 1.982e-05 | 0.00248
x2 = 0, x1 = 2.18e-05 | 0.00259
x2 = 0, x1 = 2.397e-05 | 0.00264
x2 = 0, x1 = 2.595e-05 | 0.00278
x2 = 0, x1 = 2.991e-05 | 0.00297
x2 = 0, x1 = 3.406e-05 | 0.00314
x2 = 0, x1 = 3.784e-05 | 0.00328
x2 = 0, x1 = 4.162e-05 | 0.00342
x2 = 0, x1 = 4.541e-05 | 0.00356
x2 = 0, x1 = 4.919e-05 | 0.00369
x2 = 0, x1 = 5.099e-05 | 0.00375
x2 = 0, x1 = 5.982e-05 | 0.00403
x2 = 0, x1 = 6.829e-05 | 0.00432
x2 = 0, x1 = 7.64e-05 | 0.00454
x2 = 0, x1 = 8.415e-05 | 0.00477
x2 = 0, x1 = 9.171e-05 | 0.00497
x2 = 0, x1 = 9.892e-05 | 0.00516
x2 = 0, x1 = 0.0001058 | 0.00533
x2 = 0, x1 = 0.0001124 | 0.0055
x2 = 0, x1 = 0.0001189 | 0.00565
x2 = 2.018e-05, x1 = 5.4e-07 | 0.000282
x2 = 2.018e-05, x1 = 9e-07 | 0.00035
x2 = 2.018e-05, x1 = 1.62e-06 | 0.000431
x2 = 2.018e-05, x1 = 2.34e-06 | 0.000514
x2 = 2.018e-05, x1 = 2.88e-06 | 0.000652
x2 = 2.018e-05, x1 = 3.78e-06 | 0.000768
x2 = 2.018e-05, x1 = 4.51e-06 | 0.00084
x2 = 2.018e-05, x1 = 5.59e-06 | 0.001003
x2 = 2.018e-05, x1 = 6.67e-06 | 0.00115
x2 = 2.018e-05, x1 = 7.93e-06 | 0.00127
x2 = 2.018e-05, x1 = 9.01e-06 | 0.00139
x2 = 2.018e-05, x1 = 1.009e-05 | 0.001517
x2 = 2.018e-05, x1 = 1.117e-05 | 0.00165
x2 = 2.018e-05, x1 = 1.334e-05 | 0.00188
x2 = 2.018e-05, x1 = 1.55e-05 | 0.00214
x2 = 2.018e-05, x1 = 1.766e-05 | 0.0023
x2 = 2.018e-05, x1 = 1.964e-05 | 0.00249
x2 = 2.018e-05, x1 = 2.181e-05 | 0.00259
x2 = 2.018e-05, x1 = 2.379e-05 | 0.00271
x2 = 2.018e-05, x1 = 2.595e-05 | 0.00282
x2 = 2.018e-05, x1 = 2.992e-05 | 0.00299
x2 = 2.018e-05, x1 = 3.388e-05 | 0.00317
x2 = 2.018e-05, x1 = 3.766e-05 | 0.00332
x2 = 2.018e-05, x1 = 4.163e-05 | 0.00348
x2 = 2.018e-05, x1 = 4.523e-05 | 0.00361
x2 = 2.018e-05, x1 = 4.902e-05 | 0.00375
x2 = 2.018e-05, x1 = 5.082e-05 | 0.00383
x2 = 2.018e-05, x1 = 5.965e-05 | 0.00411
x2 = 2.018e-05, x1 = 6.812e-05 | 0.00438
x2 = 2.018e-05, x1 = 7.623e-05 | 0.0046
x2 = 2.018e-05, x1 = 8.398e-05 | 0.00483
x2 = 2.018e-05, x1 = 9.136e-05 | 0.00502
x2 = 2.018e-05, x1 = 9.857e-05 | 0.0052
x2 = 2.018e-05, x1 = 0.0001054 | 0.00538
x2 = 2.018e-05, x1 = 0.0001121 | 0.00553
x2 = 2.018e-05, x1 = 0.0001186 | 0.00568
